This note sets out measurements from patent US9302988B2, “Fluoromethyl-substituted pyrrole carboxamides” (GRÜNENTHAL GMBH, priority 2012, dated 2016).

Molecules are shown by their SMILES.

T1 sequence (Q00975 whole entry): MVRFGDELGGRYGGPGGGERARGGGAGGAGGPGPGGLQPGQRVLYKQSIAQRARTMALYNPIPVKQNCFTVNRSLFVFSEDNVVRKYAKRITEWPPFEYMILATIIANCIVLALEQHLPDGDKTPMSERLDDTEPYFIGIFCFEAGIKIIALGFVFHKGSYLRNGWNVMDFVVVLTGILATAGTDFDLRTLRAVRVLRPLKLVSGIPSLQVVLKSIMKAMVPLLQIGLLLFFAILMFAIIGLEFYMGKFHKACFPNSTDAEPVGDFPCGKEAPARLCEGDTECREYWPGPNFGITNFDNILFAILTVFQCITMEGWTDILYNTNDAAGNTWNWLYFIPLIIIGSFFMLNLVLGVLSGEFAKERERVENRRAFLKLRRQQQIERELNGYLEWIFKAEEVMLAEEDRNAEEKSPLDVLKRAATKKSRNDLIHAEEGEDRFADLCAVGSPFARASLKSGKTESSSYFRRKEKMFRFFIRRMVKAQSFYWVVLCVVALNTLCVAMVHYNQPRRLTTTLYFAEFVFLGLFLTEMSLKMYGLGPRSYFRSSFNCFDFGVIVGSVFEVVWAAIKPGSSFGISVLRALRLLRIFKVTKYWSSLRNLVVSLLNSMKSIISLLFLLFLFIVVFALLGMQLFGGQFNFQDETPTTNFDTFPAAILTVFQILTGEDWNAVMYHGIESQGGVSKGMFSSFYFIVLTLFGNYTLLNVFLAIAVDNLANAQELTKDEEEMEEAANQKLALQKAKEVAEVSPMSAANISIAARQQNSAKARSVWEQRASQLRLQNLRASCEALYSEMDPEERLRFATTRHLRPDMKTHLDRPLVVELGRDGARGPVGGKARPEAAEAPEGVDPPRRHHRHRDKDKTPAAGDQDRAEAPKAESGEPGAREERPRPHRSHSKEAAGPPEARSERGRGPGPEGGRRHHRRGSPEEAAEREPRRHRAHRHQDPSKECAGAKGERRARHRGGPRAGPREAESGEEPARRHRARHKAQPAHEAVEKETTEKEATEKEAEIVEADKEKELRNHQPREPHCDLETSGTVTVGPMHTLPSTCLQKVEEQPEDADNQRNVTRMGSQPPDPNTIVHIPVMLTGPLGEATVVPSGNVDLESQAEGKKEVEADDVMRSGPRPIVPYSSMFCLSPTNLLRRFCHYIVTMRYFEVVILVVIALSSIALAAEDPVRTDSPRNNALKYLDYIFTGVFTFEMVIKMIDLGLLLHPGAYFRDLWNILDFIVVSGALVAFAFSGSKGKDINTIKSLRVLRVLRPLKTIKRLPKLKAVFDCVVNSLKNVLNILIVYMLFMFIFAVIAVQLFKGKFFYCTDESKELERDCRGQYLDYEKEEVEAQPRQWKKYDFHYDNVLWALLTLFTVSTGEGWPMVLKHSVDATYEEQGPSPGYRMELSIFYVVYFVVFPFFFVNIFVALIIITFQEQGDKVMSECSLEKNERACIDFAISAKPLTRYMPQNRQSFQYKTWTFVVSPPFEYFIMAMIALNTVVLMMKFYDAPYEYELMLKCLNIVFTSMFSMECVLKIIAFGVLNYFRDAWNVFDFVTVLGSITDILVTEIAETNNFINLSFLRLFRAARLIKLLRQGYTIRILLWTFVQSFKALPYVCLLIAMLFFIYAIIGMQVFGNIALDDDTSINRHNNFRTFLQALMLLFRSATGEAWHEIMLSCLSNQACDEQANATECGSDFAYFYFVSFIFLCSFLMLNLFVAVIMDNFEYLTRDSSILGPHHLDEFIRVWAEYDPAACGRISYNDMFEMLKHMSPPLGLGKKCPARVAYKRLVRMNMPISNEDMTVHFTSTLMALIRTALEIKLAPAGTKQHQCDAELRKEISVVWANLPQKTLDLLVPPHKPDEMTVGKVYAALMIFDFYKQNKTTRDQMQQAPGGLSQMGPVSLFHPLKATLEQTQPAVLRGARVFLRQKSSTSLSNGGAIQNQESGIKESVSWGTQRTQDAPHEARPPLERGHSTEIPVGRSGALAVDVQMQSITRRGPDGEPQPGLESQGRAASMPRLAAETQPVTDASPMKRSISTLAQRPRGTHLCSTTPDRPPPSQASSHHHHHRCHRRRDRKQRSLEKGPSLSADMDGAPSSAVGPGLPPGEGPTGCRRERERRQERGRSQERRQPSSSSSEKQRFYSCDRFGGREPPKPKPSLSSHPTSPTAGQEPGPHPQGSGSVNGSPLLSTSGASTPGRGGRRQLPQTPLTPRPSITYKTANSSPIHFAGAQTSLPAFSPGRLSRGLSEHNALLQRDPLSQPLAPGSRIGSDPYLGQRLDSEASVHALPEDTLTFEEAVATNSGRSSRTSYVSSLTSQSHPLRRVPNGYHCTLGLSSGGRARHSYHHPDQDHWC
T1 sequence (P54289 25-1103, further chain): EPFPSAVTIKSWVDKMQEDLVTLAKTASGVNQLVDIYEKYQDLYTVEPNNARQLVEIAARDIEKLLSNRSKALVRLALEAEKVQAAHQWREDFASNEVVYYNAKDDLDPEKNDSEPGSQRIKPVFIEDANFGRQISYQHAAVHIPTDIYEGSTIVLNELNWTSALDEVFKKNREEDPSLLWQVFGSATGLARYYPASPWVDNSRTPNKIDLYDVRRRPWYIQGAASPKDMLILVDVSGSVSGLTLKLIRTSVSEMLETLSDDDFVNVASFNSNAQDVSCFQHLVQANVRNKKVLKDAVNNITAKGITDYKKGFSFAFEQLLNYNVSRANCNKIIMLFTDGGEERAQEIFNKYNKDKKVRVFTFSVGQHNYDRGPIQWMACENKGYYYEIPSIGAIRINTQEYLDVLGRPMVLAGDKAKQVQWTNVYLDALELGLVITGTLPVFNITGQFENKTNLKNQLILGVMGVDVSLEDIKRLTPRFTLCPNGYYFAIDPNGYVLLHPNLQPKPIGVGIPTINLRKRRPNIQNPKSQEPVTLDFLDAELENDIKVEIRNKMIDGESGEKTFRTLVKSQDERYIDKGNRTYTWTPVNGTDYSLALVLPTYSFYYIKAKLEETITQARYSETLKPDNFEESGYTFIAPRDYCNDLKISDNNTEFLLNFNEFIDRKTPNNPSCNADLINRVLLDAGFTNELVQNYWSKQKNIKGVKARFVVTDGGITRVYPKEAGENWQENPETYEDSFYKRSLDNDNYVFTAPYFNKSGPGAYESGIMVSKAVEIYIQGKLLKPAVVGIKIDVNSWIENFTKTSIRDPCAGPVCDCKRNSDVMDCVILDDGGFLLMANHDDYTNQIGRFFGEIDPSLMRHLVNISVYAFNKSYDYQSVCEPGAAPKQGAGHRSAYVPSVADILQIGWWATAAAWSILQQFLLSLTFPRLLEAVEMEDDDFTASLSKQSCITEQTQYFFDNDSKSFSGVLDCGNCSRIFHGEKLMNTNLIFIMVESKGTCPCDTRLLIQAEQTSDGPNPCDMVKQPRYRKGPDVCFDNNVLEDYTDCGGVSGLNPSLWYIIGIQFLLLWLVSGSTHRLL
T1 sequence (P54284 whole entry, further chain): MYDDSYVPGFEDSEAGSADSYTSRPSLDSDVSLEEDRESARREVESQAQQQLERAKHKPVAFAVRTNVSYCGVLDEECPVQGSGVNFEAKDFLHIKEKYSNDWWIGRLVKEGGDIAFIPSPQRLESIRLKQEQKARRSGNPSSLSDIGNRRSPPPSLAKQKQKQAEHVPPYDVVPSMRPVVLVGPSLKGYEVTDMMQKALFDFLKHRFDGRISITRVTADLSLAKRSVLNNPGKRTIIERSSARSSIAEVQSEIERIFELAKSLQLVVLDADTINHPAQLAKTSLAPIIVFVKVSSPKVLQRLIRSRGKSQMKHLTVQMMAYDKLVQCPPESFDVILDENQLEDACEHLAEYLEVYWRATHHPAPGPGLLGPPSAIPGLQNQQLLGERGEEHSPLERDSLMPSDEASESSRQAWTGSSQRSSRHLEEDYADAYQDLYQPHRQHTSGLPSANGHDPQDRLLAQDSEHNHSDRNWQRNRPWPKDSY

The test addresses T1, Human CaV2.2 channels (Homo sapiens, UniProt Q00975).
T1 construct: expressed in transfected cells
The experiment in a line: Fluorescent assay for CaV2.2 channels using potassium depolarization to induce channel opening (FLIPR, Fluo-4). It is filed as cell-based. The conditions noted are these: 3 μM test compound, 30 mM KCl, HEK293 cells stably expressing human CaV2.2; read-out: %-Inhib (CaV2.2) @3 μM @30 mM KCl. An excerpt: In the process, the Ca^2+ influx is quantified in the FLIPR assay with the aid of a Ca^2+-sensitive dye (type Fluo-4, Molecular Probes Europe BV, Leiden, the Netherlands) in a fluorescent imaging plate reader (FLIPR 3, Molecular Devices, Sunnyvale, USA), as described hereinafter.
2.1 Fluorescent Assay for CaV2.2 Channels Using Potassium Depolarization to Induce Channel Opening
Human CaV2.2 channels were stably expressed in HEK293 cells together with alpha2-delta and beta subunits of voltage gated calcium channels. In addition, an inwardly rectifying potassium channel (Kir2.3) was stably expressed in these cells to augment control of the cell membrane potential by the concentration of extracellular potassium ions. Raise of the extracellular potassium concentration leads to depolarization of the membrane potential and thus regulates the voltage dependent state of CaV2.2 channels. For preparation, cells were seeded in black poly-D-lysine coated 96-well plates (Becton Dickinson, Biocoat 4640) in 100 μl medium [500 ml DMEM/F-12 plus Glutamax (Invitrogen 31331-093) plus 5.5 ml MEM NEAA 100× (Invitrogen 11140-035) plus 50 ml FBS decomplemented (Invitrogen 10270-106) plus 4.4 ml Geneticin (Invitrogen 10131-027) plus 1.1 ml Hygromycin B (Invitrogen 10687-010) plus 68.75 μl Puromycin (Clontech, 631306)] at a cell density of 45.000 cells per well.
Plates were incubated at 37° C. (5% CO2) for 20 to 23 hours. On the day of experiment medium was discarded and cells were loaded with Fluo 4 by addition of 100 μl of basic assay buffer (10 mM HEPES, 30 mM KCl, 120 mM NaCl, 0.8 mM CaCl2, 1.7 mM MgCl2, 10 mM Glucose, 0.1% BSA. pH 7.4) containing 2 μM Fluo 4 (Molecular Probes; F-14201), 0.01% pluronic acid (Molecular Probes; P-6866) and 2.5 mM probenecid (Molecular Probes; P36400). Cells were incubated in the dark at 25° C. for 60 min. Then the dye containing buffer was discarded and 100 μl basic assay buffer was added. Subsequently cells were incubated in the dark at 25° C. for 15 min. 25 μl of basic assay buffer with or without test compound were added and cells were incubated again in the dark at 25° C. for 15 min. Fluorescence intensity was measured on a FLIPR 3 instrument (Molecular Devices Corp., Sunnyvale, Calif.) with excitation at 480 nm and emission at 535 nm. After continuously reading fluorescence for 30 sec, 50 μl of basic assay buffer containing 210 mM KCl (NaCl omitted) were added for depolarization. Peak fluorescent signal intensity was determined and the amplitude of the peak signal, normalized to base line, was used to measure channel inhibition by test compounds.
On to `COC1(CNC(=O)c2c(-c3ccc(Cl)cc3)c(C)c(C(F)(F)F)n2Cc2ccccc2)CC1` [SC-36, 1-Benzyl-3-(4-chlorophenyl)-N-[(1-methoxy-cyclopropyl)-methyl]-4-methyl-5-(trifluoromethyl)-1H-pyrrole-2-carboxylic acid amide], for which the inhibition at 3 µM was more than 95%.
On to `CC(=O)NCCN(C)C(=O)c1c(-c2ccc(Cl)cc2)c(C)c(C(F)(F)F)n1Cc1ccccc1` [SC-37, N-(2-Acetylamino-ethyl)-1-benzyl-3-(4-chlorophenyl)-N,4-dimethyl-5-(trifluoromethyl)-1H-pyrrole-2-carboxylic acid amide], for which the inhibition at 3 µM was more than 95%.
`Cc1c(-c2ccc(Cl)cc2)c(C(=O)N(C)CCNS(C)(=O)=O)n(Cc2ccccc2)c1C(F)(F)F` [SC-38, 1-Benzyl-3-(4-chlorophenyl)-N-[2-(methanesulfonamido)-ethyl]-N,4-dimethyl-5-(trifluoromethyl)-1H-pyrrole-2-carboxylic acid amide]: the inhibition at 3 µM is more than 95%.
Take `Cc1c(-c2ccc(Cl)cc2)c(C(=O)N(C)C2CCN(C)CC2)n(Cc2ccccc2)c1C(F)(F)F` [SC-39, 1-Benzyl-3-(4-chlorophenyl)-N,4-dimethyl-N-(1-methyl-piperidin-4-yl)-5-(trifluoromethyl)-1H-pyrrole-2-carboxylic acid amide]: the inhibition at 3 µM is more than 95%.
With `Cc1c(-c2ccc(Cl)cc2)c(C(=O)N2CCOC(C)(C)C2)n(Cc2ccccc2)c1C(F)(F)F` [SC-40, [1-Benzyl-3-(4-chlorophenyl)-4-methyl-5-(trifluoromethyl)-1H-pyrrol-2-yl]-(2,2-dimethyl-morpholin-4-yl)-methanone] the figure was more than 95%; with `Cc1c(-c2ccc(Cl)cc2)c(C(=O)N2CCOCC2)n(Cc2ccccc2)c1C(F)F` [SC-41, [1-Benzyl-3-(4-chlorophenyl)-5-(difluoro-methyl)-4-methyl-1H-pyrrol-2-yl]-morpholin-4-yl-methanone], more than 95%.
As for `Cc1c(-c2ccc(Cl)cc2)c(C(=O)N(C)CC(C)(C)C)n(Cc2ccccc2)c1C(F)F` [SC-42, 1-Benzyl-3-(4-chlorophenyl)-5-(difluoro-methyl)-N-(2,2-dimethyl-propyl)-N,4-dimethyl-1H-pyrrole-2-carboxylic acid amide], the inhibition at 3 µM is more than 95%.
Take `Cc1c(-c2ccc(Cl)cc2)c(C(=O)N2CC(F)(F)C2)n(-c2ccc(Cl)cc2)c1C(F)(F)F` [SC-44, [1,3-Bis(4-chlorophenyl)-4-methyl-5-(trifluoromethyl)-1H-pyrrol-2-yl]-(3,3-difluoro-azetidin-1-yl)-methanone]: the inhibition at 3 µM fell in the range of 75 to 95%.
Take `Cc1c(-c2ccc(Cl)cc2)c(C(=O)N(C)C2(CO)CC2)n(Cc2ccccc2)c1C(F)(F)F` [SC-48, 1-Benzyl-3-(4-chlorophenyl)-N-[1-(hydroxymethyl)-cyclopropyl]-N,4-dimethyl-5-(trifluoromethyl)-1H-pyrrole-2-carboxylic acid amide]: the inhibition at 3 µM was more than 95%.
With `Cc1c(-c2ccc(Cl)cc2)c(C(=O)N(C)C2(C(N)=O)CC2)n(Cc2ccccc2)c1C(F)(F)F` [SC-49, 1-Benzyl-N-(1-carbamoyl-cyclopropyl)-3-(4-chlorophenyl)-N,4-dimethyl-5-(trifluoromethyl)-1H-pyrrole-2-carboxylic acid amide] the figure was more than 95%.
Consider `Cc1c(-c2ccc(Cl)cc2)c(C(=O)N2CCOC(=O)C2)n(Cc2ccccc2)c1C(F)(F)F` [SC-50, 4-[1-Benzyl-3-(4-chlorophenyl)-4-methyl-5-(trifluoromethyl)-1H-pyrrole-2-carbonyl]-morpholin-2-one], for which the inhibition at 3 µM lay within 75 to 95%.
With `Cc1c(-c2ccc(Cl)cc2)c(C(=O)N2CCOCC2)n(CCOc2ccc(F)cc2)c1C(F)(F)F` [SC-51, [3-(4-Chlorophenyl)-1-[2-(4-fluoro-phenoxy)-ethyl]-4-methyl-5-(trifluoromethyl)-1H-pyrrol-2-yl]-morpholin-4-yl-methanone] the figure was more than 95%; with `CCOC(=O)C1(N(C)C(=O)c2c(-c3ccc(Cl)cc3)c(C)c(C(F)(F)F)n2Cc2ccccc2)CC1` [SC-52, 1[[1-Benzyl-3-(4-chlorophenyl)-4-methyl-5-(trifluoromethyl)-1H-pyrrole-2-carbonyl]-methyl-amino]-cyclopropane-1-carboxylic acid ethyl ester], more than 95%.
Regarding `Cc1c(-c2ccc(Cl)cc2)c(C(=O)N(C)CC(C)(C)C)n(Cc2cccc(Cl)c2)c1C(F)(F)F` [SC-53, 3-(4-Chlorophenyl)-1-[(3-chlorophenyl)-methyl]-N-(2,2-dimethyl-propyl)-N,4-dimethyl-5-(trifluoromethyl)-1H-pyrrole-2-carboxylic acid amide], the inhibition at 3 µM is 75 to 95%.
With `Cc1c(-c2ccc(Cl)cc2)c(C(=O)N(C)CC(C)(C)O)n(Cc2ccccc2)c1C(F)(F)F` [SC-54, 1-Benzyl-3-(4-chlorophenyl)-N-(2-hydroxy-2-methyl-propyl)-N,4-dimethyl-5-(trifluoromethyl)-1H-pyrrole-2-carboxylic acid amide] the figure was more than 95%.
Consider `Cc1c(-c2ccc(Cl)cc2)c(C(=O)N2CCNC(=O)C2)n(Cc2cccc(Cl)c2)c1C(F)(F)F` [SC-55, 4-[3-(4-Chlorophenyl)-1-[(3-chlorophenyl)-methyl]-4-methyl-5-(trifluoromethyl)-1H-pyrrole-2-carbonyl]-piperazin-2-one], for which the inhibition at 3 µM is more than 95%.
Turning to `Cc1c(-c2ccc(Cl)cc2)c(C(=O)N(C)CCS(C)(=O)=O)n(Cc2cccc(Cl)c2)c1C(F)(F)F` [SC-56, 3-(4-Chlorophenyl)-1-[(3-chlorophenyl)-methyl]-N,4-dimethyl-N-(2-methylsulfonyl-ethyl)-5-(trifluoromethyl)-1H-pyrrole-2-carboxylic acid amide], the inhibition at 3 µM was more than 95%.
Turning to `Cc1c(-c2ccc(Cl)cc2)c(C(=O)N(C)CC(C)(C)O)n(Cc2cccc(Cl)c2)c1C(F)(F)F` [SC-57, 3-(4-Chlorophenyl)-1-[(3-chlorophenyl)-methyl]-N-(2-hydroxy-2-methyl-propyl)-N,4-dimethyl-5-(trifluoromethyl)-1H-pyrrole-2-carboxylic acid amide], the inhibition at 3 µM was more than 95%.
`Cc1c(-c2ccc(Cl)cc2F)c(C(=O)N(C)CC(C)(C)O)n(Cc2ccccc2)c1C(F)(F)F` [SC-58, 1-Benzyl-3-(4-chloro-2-fluoro-phenyl)-N-(2-hydroxy-2-methyl-propyl)-N,4-dimethyl-5-(trifluoromethyl)-1H-pyrrole-2-carboxylic acid amide]: the inhibition at 3 µM was more than 95%.
As to `Cc1c(-c2ccc(Cl)cc2F)c(C(=O)N(C)CC(C)(C)C)n(Cc2ccccc2)c1C(F)(F)F` [SC-59, 1-Benzyl-3-(4-chloro-2-fluoro-phenyl)-N-(2,2-dimethyl-propyl)-N,4-dimethyl-5-(trifluoromethyl)-1H-pyrrole-2-carboxylic acid amide], the inhibition at 3 µM was more than 95%.
With `Cc1c(-c2ccc(Cl)cc2)c(C(=O)N(C)CC2(C)COC2)n(Cc2ccccc2)c1C(F)(F)F` [SC-60, 1-Benzyl-3-(4-chlorophenyl)-N,4-dimethyl-N-[(3-methyl-oxetan-3-yl)-methyl]-5-(trifluoromethyl)-1H-pyrrole-2-carboxylic acid amide], the inhibition at 3 µM is more than 95%.
Next, `Cc1c(-c2ccc(Cl)cc2F)c(C(=O)N2CCNC(=O)C2)n(Cc2ccccc2)c1C(F)(F)F` [SC-61, 4-[1-Benzyl-3-(4-chloro-2-fluoro-phenyl)-4-methyl-5-(trifluoromethyl)-1H-pyrrole-2-carbonyl]-piperazin-2-one]: more than 95%; `Cc1c(-c2ccc(Cl)cc2F)c(C(=O)N2CCOCC2)n(Cc2ccccc2)c1C(F)(F)F` [SC-62, [1-Benzyl-3-(4-chloro-2-fluoro-phenyl)-4-methyl-5-(trifluoromethyl)-1H-pyrrol-2-yl]-morpholin-4-yl-methanone]: more than 95%.
With `Cc1c(-c2ccc(Cl)cc2)c(C(=O)N(C)C2CCS(=O)(=O)C2)n(Cc2ccccc2)c1C(F)(F)F` (stereo not drawn) [SC-63, 1-Benzyl-3-(4-chlorophenyl)-N-(1,1-dioxo-thiolan-3-yl)-N,4-dimethyl-5-(trifluoromethyl)-1H-pyrrole-2-carboxylic acid amide] the figure was more than 95%.
